Experimental data from patent US20180015100A1, “COMBINATION PRODUCTS FOR THE TREATMENT OF BACTERIAL INFECTIONS AND METHODS OF PRODUCING OR DOSING OF SAME” (priority 2016, published 2018).
Values after ≈ are worked out from the molar mass of the structure shown. Like-named read-outs stand apart in the source and are kept apart here. Marks after values point to notes of the source that are not given here.

Legend:
[1] = tested on: Citrobacter freundii isolates; assay: MIC of cephalosporins alone or with clavulanate/tazobactam; assay type: cell-based; conditions: clavulanate 2:1, tazobactam 4 μg/mL
[2] = cited from earlier work
[3] = cited from earlier work; for bioavailability / fCmax: po
[4] = tested on: Enterobacter aerogenes isolates; assay: MIC of cephalosporins alone or with clavulanate/tazobactam; assay type: cell-based; conditions: Klebsiella aerogenes, clavulanate 2:1, tazobactam 4 μg/mL
CTX-M-15 = CTX-M-15 (Escherichia coli, UniProt Q9EXV5); assay: Competition assay with nitrocefin (IC50); assay type: biochemical
Sequence of CTX-M-15 (Q9EXV5 entry or part of it): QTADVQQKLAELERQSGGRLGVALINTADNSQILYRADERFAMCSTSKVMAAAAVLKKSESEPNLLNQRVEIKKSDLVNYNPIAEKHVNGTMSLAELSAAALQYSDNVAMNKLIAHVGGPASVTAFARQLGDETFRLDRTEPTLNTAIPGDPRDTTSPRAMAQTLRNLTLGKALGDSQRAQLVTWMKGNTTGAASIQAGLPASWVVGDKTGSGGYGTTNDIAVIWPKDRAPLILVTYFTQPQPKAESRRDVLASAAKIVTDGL

[5] = tested on: Enterobacter cloacae isolates; assay: MIC of cephalosporins alone or with clavulanate/tazobactam; assay type: cell-based; conditions: clavulanate 2:1, tazobactam 4 μg/mL
[6] = tested on: Klebsiella oxytoca isolates; assay: as above; assay type: cell-based; conditions: clavulanate 2:1, tazobactam 4 μg/mL
[7] = tested on: Escherichia coli isolates; assay: as above; assay type: cell-based; conditions: clavulanate 2:1, tazobactam 4 μg/mL
[8] = tested on: Klebsiella pneumoniae isolates; assay: as above; assay type: cell-based; conditions: clavulanate 2:1, tazobactam 4 μg/mL
CTX-M-15 Strain = assay: MIC of cephalosporins without and with CLV (Table 16); assay type: cell-based; conditions: for MIC: read-out: MIC CTX-M-15 Strain − CLV; for MIC CTX-M-15 Strain + CLV: with CLV
AECO001 = assay: MIC of cephalosporins (Table 16); assay type: cell-based
[9] = tested on: COCC1=C(C(=O)O)N2C(=O)[C@@H](NC(=O)/C(=N\OC)c3csc(N)n3)[C@H]2SC1; assay: purified protein, by the assay type; conditions: other: CTX-M-15-mediated hydrolysis; pH 7.0
[10] = tested on: C=CC1=C(C(=O)O)N2C(=O)[C@@H](NC(=O)/C(=N\OCC(=O)O)c3csc(N)n3)[C@H]2SC1; assay: purified protein, by the assay type; conditions: other: CTX-M-15-mediated hydrolysis; pH 7.0
[11] = tested on: ESBL Klebsiella pneumoniae isolates; assay: Killing kinetics (time-kill); assay type: cell-based; conditions: 8X MIC
[12] = tested on: ESBL Escherichia coli isolates; assay: Killing kinetics (time-kill); assay type: cell-based; conditions: 8X MIC
[13] = tested on: 385 Escherichia coli and 126 Klebsiella pneumoniae isolates; assay: MIC, MIC50 and MIC90 by reference broth microdilution against 511 UTI/bloodstream isolates (USA and Europe 2014-2015); assay type: cell-based; conditions: 511 isolates
[14] = tested on: ESBL Escherichia coli isolates; assay: MIC against isolates analyzed in time-kill experiments; assay type: cell-based
[15] = tested on: ESBL Klebsiella pneumoniae isolates; assay: as above; assay type: cell-based
[16] = tested on: E. coli clinical isolate expressing the ESBL CTX-M-15; assay type: in vivo, mouse; conditions: 4 mg/kg, q4 hr
[17] = tested on: Escherichia coli isolates with an ESBL-phenotype; assay: In vitro MIC90 of a panel of approved antibiotics, US surveillance program; assay type: cell-based; conditions: Escherichia coli; E. coli (n = 124), ESBL-phenotype; read-out: MIC90

## C=CC1=C(C(=O)O)N2C(=O)[C@@H](NC(=O)/C(=N\OCC(=O)O)c3csc(N)n3)[C@H]2SC1 [Cefixime, cefixime]
[1]; ACFR1034 (CTX-M-15, TEM-OSBL)
  MIC: > 64 µg/mL
[1]; ACFR1035 (CTX-M-3, TEM-OSBL)
  MIC: > 64 µg/mL
[2]; serum
  Protein binding (% bound): 65 (serum) % bound
[3]; for highest plasma concentration from previous row
  Mean unbound plasma concentration following one elimination half-life: 0.65 (400 mg) μg/mL
[3]; in vivo, 200 mg
  Mean Cmax: 2000 ng/mL
  Mean fCmax: 0.7 µg/mL
[3]; in vivo, 400 mg
  Mean Cmax: 3700 ng/mL
  Mean fCmax: 1.3 µg/mL
[3]; in vivo
  bioavailability: 40-90%
  fCmax: 2.7 µg/mL
[3]; plasma
  Elimination half-life: 3-4^b h
[4]; AEAE1027 (CTX-M-14)
  MIC: 8 µg/mL
[4]; AEAE1029 (CTX-M-15)
  MIC: > 64 µg/mL
CTX-M-15
  IC50: 20 µM
[5]; AECL1065 (CTX-M-15)
  MIC: > 64 µg/mL
[5]; AECL1067 (CTX-M-3)
  MIC: > 64 µg/mL
[6]; AKOX1005 (SHV-2, TEM-1, DHA-1)
  MIC: 16 µg/mL
[6]; AKOX1009 (CTX-M-15)
  MIC: > 64 µg/mL
[7]; AECO001 (no ESBL)
  MIC: 1 µg/mL
[7]; AECO1078 (CTX-M-15)
  MIC: > 64 µg/mL
[7]; AECO1157 (CTX-M-15, TEM-OSBL)
  MIC: > 64 µg/mL
[7]; AECO1159 (CTX-M-15)
  MIC: > 64 µg/mL
[7]; AECO1169 (CTX-M-1, TEM-OSBL)
  MIC: 16 µg/mL
[7]; AECO1172 (CTX-M-14)
  MIC: 16 µg/mL
[8]; AKPN1159 (SHV-12)
  MIC: 32 µg/mL
[8]; AKPN1161 (SHV-7)
  MIC: 32 µg/mL
[8]; AKPN1162 (CTX-M-15, SHV-12)
  MIC: > 64 µg/mL
[8]; AKPN1166 (CTX-M-14, SHV-12)
  MIC: > 64 µg/mL
[8]; AKPN1167 (SHV-2)
  MIC: 8 µg/mL
CTX-M-15 Strain
  MIC: > 64 µg/mL
  MIC CTX-M-15 Strain + CLV: 2 µg/mL
AECO001
  MIC: 1 µg/mL

## COCC1=C(C(=O)O)N2C(=O)[C@@H](NC(=O)/C(=N\OC)c3csc(N)n3)[C@H]2SC1 [Cefpodoxime, cefpodoxime]
[1]; ACFR1034 (CTX-M-15, TEM-OSBL)
  MIC: > 64 µg/mL
[1]; ACFR1035 (CTX-M-3, TEM-OSBL)
  MIC: > 64 µg/mL
[2]; plasma
  Protein binding (% bound): 21-29 (plasma) % bound
[2]; serum
  Protein binding (% bound): 22-33 (serum); % bound
[3]; in vivo, 100 mg
  Mean Cmax: 1400 ng/mL
  Mean fCmax: 1.1 µg/mL
[3]; in vivo, 200 mg
  Mean Cmax: 2300 ng/mL
  Mean fCmax: 1.8 µg/mL
[3]; in vivo, 400 mg
  Mean Cmax: 3900 ng/mL
[3]; in vivo, 800 mg
  half-life: 2.9 h
  fCmax: approximately 5.4 μg/mL
[3]; in vivo
  bioavailability: 40-90%
  Elimination half-life: 2.1 to 2.8 h
  Mean unbound plasma concentration following one elimination half-life: 1.55 (400 mg) μg/mL
[4]; AEAE1027 (CTX-M-14)
  MIC: > 64 µg/mL
[4]; AEAE1029 (CTX-M-15)
  MIC: > 64 µg/mL
CTX-M-15
  IC50: 24 µM
[5]; AECL1065 (CTX-M-15)
  MIC: > 64 µg/mL
[5]; AECL1067 (CTX-M-3)
  MIC: > 64 µg/mL
[6]; AKOX1005 (SHV-2, TEM-1, DHA-1)
  MIC: 32 µg/mL
[6]; AKOX1009 (CTX-M-15)
  MIC: > 64 µg/mL
[7]; AECO001 (no ESBL)
  MIC: 0.5 µg/mL
[7]; AECO1078 (CTX-M-15)
  MIC: > 64 µg/mL
[7]; AECO1147 (CTX-M-15)
  MIC: > 64 µg/mL
[7]; AECO1157 (CTX-M-15, TEM-OSBL)
  MIC: > 64 µg/mL
[7]; AECO1159 (CTX-M-15)
  MIC: > 64 µg/mL
[7]; AECO1169 (CTX-M-1, TEM-OSBL)
  MIC: > 64 µg/mL
[7]; AECO1172 (CTX-M-14)
  MIC: > 64 µg/mL
[8]; AKPN1159 (SHV-12)
  MIC: 64 µg/mL
[8]; AKPN1161 (SHV-7)
  MIC: 16 µg/mL
[8]; AKPN1162 (CTX-M-15, SHV-12)
  MIC: > 64 µg/mL
[8]; AKPN1166 (CTX-M-14, SHV-12)
  MIC: > 64 µg/mL
[8]; AKPN1167 (SHV-2)
  MIC: > 64 µg/mL
CTX-M-15 Strain
  MIC: > 64 µg/mL
  MIC CTX-M-15 Strain + CLV: 4 µg/mL
AECO001
  MIC: 0.5 µg/mL

## CTX-M-15 (Escherichia coli)
[9]
  Km: 13 (10-16) μM
  kcat: 50 s⁻¹
  kcat/Km: 3.8e+06 M⁻¹ s⁻¹
[10]
  Km: 14 (11-18) μM
  kcat: 2 s⁻¹
  kcat/Km: 140000 M⁻¹ s⁻¹

## C[C@@H](O)[C@H]1C(=O)N2C(C(=O)O)=C(S[C@@H]3CN[C@H](C(=O)N(C)C)C3)[C@H](C)[C@H]12 [Meropenem, meropenem]
[11]; AKPN1159, 2 h
  Change in Log10 CFU/mL From Inoculum (0 hr): −2.64 Log10 CFU/mL
[11]; AKPN1159, 4 h
  Change in Log10 CFU/mL From Inoculum (0 hr): −4.16 Log10 CFU/mL
[11]; AKPN1159, 6 h
  Change in Log10 CFU/mL From Inoculum (0 hr): −4.73 Log10 CFU/mL
[11]; AKPN1159, 24 h
  Change in Log10 CFU/mL From Inoculum (0 hr): −6.33 Log10 CFU/mL
[11]; AKPN1162, 2 h
  Change in Log10 CFU/mL From Inoculum (0 hr): −3.01 Log10 CFU/mL
[11]; AKPN1162, 4 h
  Change in Log10 CFU/mL From Inoculum (0 hr): −3.58 Log10 CFU/mL
[11]; AKPN1162, 6 h
  Change in Log10 CFU/mL From Inoculum (0 hr): −3.66 Log10 CFU/mL
[11]; AKPN1162, 24 h
  Change in Log10 CFU/mL From Inoculum (0 hr): −6.48 Log10 CFU/mL
[12]; AECO1156, 2 h
  Change in Log10 CFU/mL From Inoculum (0 hr): −3.41 Log10 CFU/mL
[12]; AECO1156, 4 h
  Change in Log10 CFU/mL From Inoculum (0 hr): −4.08 Log10 CFU/mL
[12]; AECO1156, 6 h
  Change in Log10 CFU/mL From Inoculum (0 hr): −5.69 Log10 CFU/mL
[12]; AECO1156, 24 h
  Change in Log10 CFU/mL From Inoculum (0 hr): −5.69 Log10 CFU/mL
[12]; AECO1157, 2 h
  Change in Log10 CFU/mL From Inoculum (0 hr): −3.49 Log10 CFU/mL
[12]; AECO1157, 4 h
  Change in Log10 CFU/mL From Inoculum (0 hr): −4.98 Log10 CFU/mL
[12]; AECO1157, 6 h
  Change in Log10 CFU/mL From Inoculum (0 hr): −4.38 Log10 CFU/mL
[12]; AECO1157, 24 h
  Change in Log10 CFU/mL From Inoculum (0 hr): −5.98 Log10 CFU/mL
[12]; AECO1162, 2 h
  Change in Log10 CFU/mL From Inoculum (0 hr): −2.91 Log10 CFU/mL
[12]; AECO1162, 4 h
  Change in Log10 CFU/mL From Inoculum (0 hr): −3.42 Log10 CFU/mL
[12]; AECO1162, 6 h
  Change in Log10 CFU/mL From Inoculum (0 hr): −4.39 Log10 CFU/mL
[12]; AECO1162, 24 h
  Change in Log10 CFU/mL From Inoculum (0 hr): −6.08 Log10 CFU/mL
[12]; AECO1166, 2 h
  Change in Log10 CFU/mL From Inoculum (0 hr): −4.17 Log10 CFU/mL
[12]; AECO1166, 4 h
  Change in Log10 CFU/mL From Inoculum (0 hr): −6.08 Log10 CFU/mL
[12]; AECO1166, 6 h
  Change in Log10 CFU/mL From Inoculum (0 hr): −6.08 Log10 CFU/mL
[12]; AECO1166, 24 h
  Change in Log10 CFU/mL From Inoculum (0 hr): −6.08 Log10 CFU/mL
[13]
  MIC50: 0.03 µg/mL (≈ 0.0782 µM)
[13]; EUCAST 2016 criteria
  EUCAST % I: 3.3%
[13]; read-out: MIC90
  MIC90: 0.12 µg/mL (≈ 0.313 µM)
[14]; AECO1156 (CTXM-15, TEM-OSBL)
  MIC: 0.03 µg/mL (≈ 0.0782 µM)
[14]; AECO1157 (CTXM-15, TEM-OSBL)
  MIC: 0.03 µg/mL (≈ 0.0782 µM)
[14]; AECO1162 (CTX-M-14)
  MIC: 0.03 µg/mL (≈ 0.0782 µM)
[14]; AECO1166 (SHV-12)
  MIC: 0.016 µg/mL (≈ 0.0417 µM)
[15]; AKP1162 (SHV-12, CTX-M-15)
  MIC: 0.06 µg/mL (≈ 0.156 µM)
[15]; AKPN1159 (SHV-12)
  MIC: 0.03 µg/mL (≈ 0.0782 µM)
[16]
  bacterial CFU, bladder: 3.75 log10 CFU
  bacterial CFU, kidneys: 3.11 log10 CFU
  bacterial CFU, urine: 3.25 log10 CFU
[17]
  MIC90: 0.03 µg/mL (≈ 0.0782 µM)

## CO/N=C(\C(=O)N[C@@H]1C(=O)N2C(C(=O)O)=C(COC(C)=O)CS[C@H]12)c1csc(N)n1 [Cefotaxime, cefotaxime]
CTX-M-15
  IC50: 31 µM
AECO001
  MIC: 0.125 µg/mL
